Molecular target: T1, phosphorylated VEGF-R2Δ50 (Homo sapiens, UniProt P35968, DEL940-989/E990V)
T1 construct: VEGF-R2Δ50 contains residues 806-939 and 990-1171; made in house; host or cells: baculovirus/insect cells
Assay: VEGF-R2 ELISA assay (phosphogastrin formation)
Assay type: biochemical
Conditions: @ 10 μM (ELISA); read-out: FLVK-P percent inhibition (ELISA)
From the text: A construct (VEGF-R2Δ50) of the cytosolic domain of human vascular endothelial growth factor receptor 2 (VEGF-R2) lacking the 50 central residues of the 68 residues of the kinase insert domain was expressed in a baculovirus/insect cell system. Of the 1356 residues of full-length VEGF-R2, VEGF-R2Δ50 contains residues 806-939 and 990-1171, and also one point mutation (E990V) within the kinase insert domain relative to wild-type VEGF-R2. See commonly assigned, co-pending U.S. patent application Ser. No. 09/390,326, filed Sep. 7, 1999, incorporated by reference herein, for discussion of VEGF constructs and expression systems. Autophosphorylation of the purified construct was performed by incubation of the enzyme at a concentration of 4 μM in the presence of 3 mM ATP and 40 mM MgCl2 in 100 mM Hepes, pH 7.5, containing 5% glycerol and 5 mM DTT, at 4° C. for 2 h. […]
Formation of phosphogastrin was monitored using biotinylated gastrin peptide (1-17) as substrate. […] The activity of horseradish peroxidase was monitored using 2,2′-azino-di-[3-ethylbenzathiazoline sulfonate(6)] diammonium salt (ABTS). […] The horseradish peroxidase reaction was quenched by addition of acid (H2SO4), followed by absorbance reading at 405 nm. Ki values were determined by measuring enzyme activity in the presence of varying concentrations of test compounds. The data were analyzed using Enzyme Kinetic and Kaleidagraph software.

T1 sequence (P35968 with tags, fused parts or gaps DEL940-989/E990V limits assumed): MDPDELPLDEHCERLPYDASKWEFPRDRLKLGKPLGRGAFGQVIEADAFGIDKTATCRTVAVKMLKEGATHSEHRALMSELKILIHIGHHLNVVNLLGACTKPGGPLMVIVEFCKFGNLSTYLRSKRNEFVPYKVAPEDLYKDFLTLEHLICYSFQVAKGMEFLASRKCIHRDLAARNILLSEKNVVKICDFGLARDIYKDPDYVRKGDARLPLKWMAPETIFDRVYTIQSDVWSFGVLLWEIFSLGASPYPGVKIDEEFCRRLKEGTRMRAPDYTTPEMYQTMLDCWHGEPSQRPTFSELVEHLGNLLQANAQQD

Structure (SMILES): O=C(NCc1ccc2c(c1)OCO2)c1cccc(CSc2ncnc3[nH]ncc23)c1 [Example B-6, N-(1,3-Benzodioxyl-5-ylmethyl)-3-[(1H-pyrazolo[3,4-d]pyrimidin-4-yl)sulfanylmethyl]benzamide]
- inhibition at 10 µM: 62%

— patent US6635641B2 (Agouron Pharmaceuticals, Inc., priority 2000, dated 2003)
